The results in this text go back to article PMC4979471 (Cell Death Discovery, 2015).

Like-named read-outs stand apart in the source and are kept apart here.

Holding throughout (test): Kinase selectivity, P33-radiolabeled assay
Format in all cases: biochemical
Conditions in all cases: 10 μM ATP

The target in one assay is T1, NEK1 (Homo sapiens, UniProt Q96PY6).
T1 construct: purchased Reaction Biology Corp
T1 sequence (Q96PY6 1-1258): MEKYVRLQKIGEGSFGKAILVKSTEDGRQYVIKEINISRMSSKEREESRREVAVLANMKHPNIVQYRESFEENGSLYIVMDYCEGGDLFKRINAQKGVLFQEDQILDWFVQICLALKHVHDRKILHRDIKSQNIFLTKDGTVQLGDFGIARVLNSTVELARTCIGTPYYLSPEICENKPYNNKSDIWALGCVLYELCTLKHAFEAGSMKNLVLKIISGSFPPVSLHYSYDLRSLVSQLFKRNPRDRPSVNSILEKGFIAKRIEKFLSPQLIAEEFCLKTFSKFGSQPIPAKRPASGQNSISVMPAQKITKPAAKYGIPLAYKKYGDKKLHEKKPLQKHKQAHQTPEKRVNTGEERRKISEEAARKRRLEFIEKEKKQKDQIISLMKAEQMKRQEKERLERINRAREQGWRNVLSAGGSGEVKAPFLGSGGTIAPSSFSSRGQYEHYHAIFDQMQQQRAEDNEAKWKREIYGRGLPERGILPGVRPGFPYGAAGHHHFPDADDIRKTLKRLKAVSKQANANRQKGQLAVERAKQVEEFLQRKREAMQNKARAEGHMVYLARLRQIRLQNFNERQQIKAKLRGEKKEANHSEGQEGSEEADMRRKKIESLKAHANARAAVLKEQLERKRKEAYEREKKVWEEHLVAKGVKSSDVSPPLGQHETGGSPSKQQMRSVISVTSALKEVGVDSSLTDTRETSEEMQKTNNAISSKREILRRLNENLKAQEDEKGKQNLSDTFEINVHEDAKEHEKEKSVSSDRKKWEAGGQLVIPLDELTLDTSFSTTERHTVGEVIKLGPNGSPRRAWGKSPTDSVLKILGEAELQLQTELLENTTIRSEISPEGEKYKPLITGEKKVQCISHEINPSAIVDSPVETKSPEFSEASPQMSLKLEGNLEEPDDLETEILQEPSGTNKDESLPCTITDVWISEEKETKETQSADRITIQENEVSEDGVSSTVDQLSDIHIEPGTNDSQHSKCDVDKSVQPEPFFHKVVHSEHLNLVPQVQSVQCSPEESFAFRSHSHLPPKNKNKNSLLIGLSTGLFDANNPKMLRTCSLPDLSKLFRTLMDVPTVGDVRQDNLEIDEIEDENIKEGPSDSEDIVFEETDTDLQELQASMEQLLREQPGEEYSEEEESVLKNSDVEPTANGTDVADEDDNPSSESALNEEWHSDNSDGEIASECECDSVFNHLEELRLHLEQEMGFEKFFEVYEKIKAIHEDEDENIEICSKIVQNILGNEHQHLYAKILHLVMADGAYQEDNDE
The gist of the method: (§1)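 ATP at 10 μM; test article at 10 μM, single point, two replicates. Output is activity as % of DMSO.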

The target of a further assay is T2, BLK (Homo sapiens, UniProt P51451).
T2 construct: purchased Reaction Biology Corp
T2 sequence (P51451 whole entry): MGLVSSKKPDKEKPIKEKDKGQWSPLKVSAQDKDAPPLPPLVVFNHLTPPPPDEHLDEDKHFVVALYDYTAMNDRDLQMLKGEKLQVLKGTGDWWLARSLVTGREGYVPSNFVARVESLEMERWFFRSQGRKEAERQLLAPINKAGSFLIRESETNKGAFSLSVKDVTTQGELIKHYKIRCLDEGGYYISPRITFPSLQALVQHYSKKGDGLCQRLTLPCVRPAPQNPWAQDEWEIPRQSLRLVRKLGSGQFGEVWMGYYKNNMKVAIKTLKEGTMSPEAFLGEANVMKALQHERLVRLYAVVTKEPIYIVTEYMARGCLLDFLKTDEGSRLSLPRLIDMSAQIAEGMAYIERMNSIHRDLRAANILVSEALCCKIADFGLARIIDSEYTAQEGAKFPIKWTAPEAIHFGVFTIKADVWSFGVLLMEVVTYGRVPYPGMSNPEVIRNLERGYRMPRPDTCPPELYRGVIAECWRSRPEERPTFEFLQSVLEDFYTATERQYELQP
In a few lines: as §1

A further assay addresses T3, TAOK1 (Homo sapiens, UniProt Q7L7X3).
T3 construct: purchased Reaction Biology Corp
T3 sequence (Q7L7X3 1-1001): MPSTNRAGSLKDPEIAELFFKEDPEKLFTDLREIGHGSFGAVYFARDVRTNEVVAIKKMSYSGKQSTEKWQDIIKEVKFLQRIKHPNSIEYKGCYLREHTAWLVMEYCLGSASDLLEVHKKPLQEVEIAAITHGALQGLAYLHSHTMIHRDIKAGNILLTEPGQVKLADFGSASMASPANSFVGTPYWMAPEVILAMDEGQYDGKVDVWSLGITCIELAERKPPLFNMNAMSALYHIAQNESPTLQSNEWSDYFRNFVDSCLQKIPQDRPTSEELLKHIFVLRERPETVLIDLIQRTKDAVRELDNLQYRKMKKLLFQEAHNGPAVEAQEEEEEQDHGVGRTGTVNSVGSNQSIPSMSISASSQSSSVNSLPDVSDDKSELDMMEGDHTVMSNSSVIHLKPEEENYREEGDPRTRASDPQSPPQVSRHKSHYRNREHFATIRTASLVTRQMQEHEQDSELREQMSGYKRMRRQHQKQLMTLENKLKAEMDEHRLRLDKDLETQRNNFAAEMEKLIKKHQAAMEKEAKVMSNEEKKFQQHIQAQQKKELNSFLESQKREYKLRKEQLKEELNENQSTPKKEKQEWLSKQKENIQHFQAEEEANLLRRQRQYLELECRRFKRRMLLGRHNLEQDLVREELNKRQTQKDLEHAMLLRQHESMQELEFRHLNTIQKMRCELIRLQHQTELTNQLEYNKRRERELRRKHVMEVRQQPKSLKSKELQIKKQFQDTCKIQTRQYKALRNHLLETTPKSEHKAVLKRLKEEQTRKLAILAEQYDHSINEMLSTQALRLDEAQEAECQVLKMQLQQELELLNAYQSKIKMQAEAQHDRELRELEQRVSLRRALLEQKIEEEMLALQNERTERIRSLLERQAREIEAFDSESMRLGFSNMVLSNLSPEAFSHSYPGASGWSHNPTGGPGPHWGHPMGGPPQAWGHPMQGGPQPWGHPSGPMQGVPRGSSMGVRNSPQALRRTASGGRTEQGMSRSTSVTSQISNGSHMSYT
In a few lines:
as §1

The next assay concerns the target T4, JAK1 (Homo sapiens, UniProt P23458).
T4 construct: purchased Reaction Biology Corp
In a few lines:
as §1

Where [1] appears, read: read-out: % Enzyme Activity (relative to DMSO controls) AVG.
The mark [2] stands for this setting: read-out: % Enzyme Activity (relative to DMSO controls) Data 1.
[3] abbreviates: read-out: % Enzyme Activity (relative to DMSO controls) Data 2.

T4 sequence (P23458 whole entry): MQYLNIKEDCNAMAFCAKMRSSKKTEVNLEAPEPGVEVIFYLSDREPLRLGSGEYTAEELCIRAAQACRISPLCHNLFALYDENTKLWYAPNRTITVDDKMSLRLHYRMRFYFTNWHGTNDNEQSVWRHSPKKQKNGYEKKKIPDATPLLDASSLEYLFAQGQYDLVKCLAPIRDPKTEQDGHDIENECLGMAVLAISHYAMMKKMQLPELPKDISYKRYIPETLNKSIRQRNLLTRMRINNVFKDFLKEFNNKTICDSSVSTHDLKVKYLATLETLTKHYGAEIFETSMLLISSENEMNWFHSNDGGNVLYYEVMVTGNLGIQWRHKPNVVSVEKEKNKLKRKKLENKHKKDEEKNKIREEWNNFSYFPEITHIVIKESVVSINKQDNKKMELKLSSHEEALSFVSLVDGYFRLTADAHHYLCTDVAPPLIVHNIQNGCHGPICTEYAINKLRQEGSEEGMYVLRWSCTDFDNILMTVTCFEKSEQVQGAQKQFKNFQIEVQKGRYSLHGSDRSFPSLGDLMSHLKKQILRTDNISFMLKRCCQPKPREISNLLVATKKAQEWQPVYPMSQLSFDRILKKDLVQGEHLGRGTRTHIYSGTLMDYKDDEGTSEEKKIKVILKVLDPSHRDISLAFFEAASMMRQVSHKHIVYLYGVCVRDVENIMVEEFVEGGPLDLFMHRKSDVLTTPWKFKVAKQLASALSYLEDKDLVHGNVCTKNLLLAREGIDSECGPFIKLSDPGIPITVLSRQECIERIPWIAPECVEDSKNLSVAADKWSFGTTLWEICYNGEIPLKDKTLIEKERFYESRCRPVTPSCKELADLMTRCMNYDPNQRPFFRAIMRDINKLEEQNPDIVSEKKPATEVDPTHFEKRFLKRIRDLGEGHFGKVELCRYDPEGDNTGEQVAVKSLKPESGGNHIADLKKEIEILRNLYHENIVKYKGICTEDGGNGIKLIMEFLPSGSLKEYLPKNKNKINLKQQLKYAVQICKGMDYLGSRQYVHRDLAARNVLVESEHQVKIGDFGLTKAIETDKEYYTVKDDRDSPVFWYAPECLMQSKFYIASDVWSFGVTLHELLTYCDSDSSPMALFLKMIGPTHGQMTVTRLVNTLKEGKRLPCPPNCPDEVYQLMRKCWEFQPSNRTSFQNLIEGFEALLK

Take `CC(C)(C)C(=O)N1N=CC[C@H]1c1ccccc1` [GSK′963]: the remaining activity at 10 µM on NEK1 (setting [1]) is 97.5%; at NEK1 (setting [2]), 97.1%; on NEK1 (setting [3]) it was 98%; at BLK (setting [1]), 113%; at BLK (setting [2]), 112%; at BLK (setting [3]), 113%. Also, the remaining activity at 10 µM on TAOK1 (setting [1]) was 99.3%; at TAOK1 (setting [2]) it was 101%; at TAOK1 (setting [3]), 97.8%; on JAK1 (setting [1]) it was 98.8%; on JAK1 (setting [2]), 97.9%; on JAK1 (setting [3]), 99.8%.
